Columns and labels:
Assay type in all cases: in vivo, human
[1] = tested on: chronic hepatitis B (CHB) patients; assay: Time to virological relapse after discontinuation of NUC treatment (Cox proportional hazard regression); details: for HR: hazard ratio for virological relapse after stop of treatment, treatment regimen tenofovir vs entecavir
Source text: (§1) Patients and Study Design: In this multi-center prospective study in Taiwan, 242 CHB patients were enrolled while in their last half year of a minimum 3-year treatment regimen with direct antivirals. Of them, 47 were excluded due to protocol violation, screening failure, lost to follow-up, withdrawal by the subject, use of immune related therapy, or on-treatment clinical relapse. An additional 14 were excluded as the analysis required patients to be hepatitis B e-antigen (HBeAg) negative, hepatitis virus (HBV) DNA < 60 IU/mL, and alanine transaminase (ALT) < 80 U/L at the last on-treatment visit, leaving 186 patients eligible for analysis.
(§2) Patients were followed for up to two years after treatment discontinuation while assessing virological and clinical relapse, provided that treatment was not re-initiated. Virological relapse was defined as HBV DNA ≥ 2000 IU/mL. Clinical relapse was defined as ALT level ≥ 2x ULN in addition to a virological relapse. A patient was denoted a sustained clinical responder in case no clinical and no virological relapse occurred during the entire follow-up period after treatment cessation.
(§3) Statistical Analysis: Continuous variables are presented as means ± standard deviations, categorical variables by counts and percentages. The Student t test and Fisher exact test were used to compare continuous and categorical covariates, respectively, between groups. Cumulative incidence of virological and clinical relapse after stop of treatment was assessed by Kaplan-Meier curves including the log-rank test. Cox proportional hazard regression analysis was applied for univariate and multivariate models of time to virological and clinical relapse. To assess associations to sustained clinical response, logistic regression analysis was performed. All statistical analyses were executed within the R(3.4.3) statistical software. Statistical tests were two-sided and considered significant at the 0.05 significance level.
(§4) Statistical Analysis of Genetics Data: All the statistical analyses were performed in R (3.4.3). The association between the SNPs and the time to clinical relapse and time to viral relapse was assessed using a Cox proportional hazard model, considering the prior treatment. • Surv(TIME_VIRAL_RELAPSE,STATUS_VIRAL_RELAPSE) ~ GENETIC + LAST_TREATMENT • Surv(TIME_CLINICAL _RELAPSE,STATUS_CLINICAL_RELAPSE) ~ GENETIC + LAST_TREATMENT
(§5) Merge With Genetic Data: For both clinical and virological relapse, the significant clinical covariates (Table 4 and Table 5) are merged with the corresponding significant hits from the GWAS analysis. Cox proportional regression analysis with lasso regularization is applied to assess the combined association of the clinical and genetic covariates to relapse. Note that a threshold was set to the absolute values of the coefficients to be included in the final Cox model, equal to 0.35 and 0.2 for clinical and virological relapse respectively.
(§6) Cumulative incidence of virological and clinical relapse after stop of treatment was assessed by Kaplan-Meier curves. In addition, Cox proportional hazard regression analysis (Therneau Terry M., et al., Statistics in Medicine. 2001, 20(13):2053-2054) was applied, obtaining univariate and multivariate models for time to virological and clinical relapse (model fits are provided in Table 23a and Table 23b for virological and clinical relapse respectively).
(§7) Statistical Analysis of Genetics Data: Considering that HBsAg status at the end of treatment and treatment regimen were predictive for onset of relapse, the association between the SNPs and onset of relapse was assessed using a Cox model^1 including HBsAg level at the last visit on treatment (high (≥ 100 IU/mL) vs. low (< 100 IU/mL)) and the antiviral treatment at enrollment (tenofovir vs. entecavir) as main effects. […]

[2] = tested on: chronic hepatitis B (CHB) patients; assay: Time to clinical relapse after discontinuation of NUC treatment (Cox proportional hazard regression)
Source text: as §1, §2, §3, §4, §5, §6, §7

[3] = tested on: chronic hepatitis B (CHB) patients; assay: Logistic regression model predicting viral relapse before 3 months after stop of treatment; details: Table 13; model with treatment regimen, EOT HBsAg, baseline HBeAg status and all SNPs predicting VR
Experimental: Prediction of Virological Relapse: The receiver operating characteristic (ROC) curve was analyzed for treatment regimen, EOT HBsAg (≥ 100 IU/mL vs < 100 IU/mL), baseline HBeAg status, all 30 SNPs associated to virological relapse (VR), or a combination of these covariates, in predicting virological relapse (VR) after stop of treatment are represented on FIG. 22 (3 months), FIG. 23 (6 months), FIG. 24 (1 year) and FIG. 25 (2 years).

[4] = tested on: chronic hepatitis B (CHB) patients; assay: Sustained clinical response after discontinuation of NUC treatment (logistic regression)
Source text: Patients and Study Design: In this multi-center prospective study in Taiwan, 242 CHB patients were enrolled while in their last half year of a minimum 3-year treatment regimen with direct antivirals. Of them, 47 were excluded due to protocol violation, screening failure, lost to follow-up, withdrawal by the subject, use of immune related therapy, or on-treatment clinical relapse. An additional 14 were excluded as the analysis required patients to be hepatitis B e-antigen (HBeAg) negative, hepatitis virus (HBV) DNA < 60 IU/mL, and alanine transaminase (ALT) < 80 U/L at the last on-treatment visit, leaving 186 patients eligible for analysis. Patients were followed for up to two years after treatment discontinuation while assessing virological and clinical relapse, provided that treatment was not re-initiated. Virological relapse was defined as HBV DNA ≥ 2000 IU/mL. Clinical relapse was defined as ALT level ≥ 2x ULN in addition to a virological relapse. […] Cumulative incidence of virological and clinical relapse after stop of treatment was assessed by Kaplan-Meier curves including the log-rank test. […] Considering that HBsAg status was representative of disease progression, the association between the SNPs and sustained clinical response was assessed using a logistic model, considering HBsAg levels (high (≥ 100 IU/mL) vs. low (< 100 IU/mL)) at the last visit before end of antiviral treatment. […]

[5] = tested on: chronic hepatitis B (CHB) patients; assay: Logistic regression model predicting clinical relapse before 6 months after stop of treatment; details: Table 12; model with treatment regimen, EOT HBsAg and all SNPs predicting CR
Experimental: Prediction of Clinical Relapse: The receiver operating characteristic (ROC) curve was analyzed for treatment regimen, EOT HBsAg (≥ 100 IU/mL vs < 100 IU/mL), rs4668818, rs948006, rs2934456, rs77586835, rs75876539, rs8050261, rs1542951, rs231770, rs9277535, or a combination of these covariates, in predicting clinical relapse (CR) after stop of treatment.

[6] = later after stopping entecavir treatment compared to tenofovir treatment, Example 1

C=C1[C@H](CO)[C@@H](O)C[C@@H]1n1cnc2c(=O)[nH]c(N)nc21 [Entecavir, entecavir]
Onset of virological relapse, average delay [1, 6]: 119 days
Onset of clinical relapse, average delay ([2]; among the 110 clinical relapsers, later after stopping entecavir compared to tenofovir, Example 3): 100 days
Onset of clinical relapse, average delay [2, 6]: 115 days

C[C@H](Cn1cnc2c(N)ncnc21)OCP(=O)(O)O [Tenofovir, tenofovir]
Viral relapse before 3 months, odds ratio (Estimate) [3]: 3010
Sustained clinical response, univariate analysis OR (95% CI) ([4]; Table 6, treatment regimen vs entecavir): 0.79 (0.29-2.03)
Sustained clinical response, univariate analysis OR (95% CI) ([4]; Table 15, Example 2, vs entecavir): 0.79 (0.29-2.03)
Virological relapse, multivariate analysis HR (95% CI) ([1]; Table 5, Example 1, Cox regression, treatment regimen vs entecavir, after stop of treatment): 3.02
Virological relapse, univariate analysis HR (95% CI) ([1]; Table 5, Cox regression, treatment regimen vs entecavir, after stop of treatment, N = 186): 2.49 (1.77-3.49)
Time to virological relapse, lasso regression, mean estimated hazard ratio ([1]; Table 11, clinical and genetic covariates, mean across 1000 iterations, vs entecavir): 2.662
Virological relapse, multivariate analysis HR (95% CI) ([1]; Table 23a, Example 3, multivariate with age, baseline HBeAg, EOT HBsAg, vs entecavir): 2.97 (2.10-4.20)
Virological relapse, multivariate analysis HR (95% CI) ([1]; Table 23a, Example 3, multivariate with age, baseline HBeAg, EOT HBsAg, vs entecavir, listed as tenofovir): 2.97
Virological relapse, univariate analysis HR (95% CI) ([1]; Table 23a, Example 3, vs entecavir): 2.49 (1.77-3.49)
HR ([1]; multivariate Cox model with HBsAg at end of treatment and all 33 SNPs (Table 27a)): 7.26
HR ([1]; multivariate Cox model with HBsAg at end of treatment and the 17 Virological signature SNPs (Table 27b)): 7.06
Clinical relapse before 6 months, odds ratio (Estimate) [5]: 4.008
Clinical relapse, multivariate analysis HR (95% CI) ([2]; Table 4, Example 1, Cox regression, treatment regimen vs entecavir, after stop of treatment): 1.78 (1.20-2.64)
Clinical relapse, multivariate analysis HR (95% CI) ([2]; Table 4, Example 1, Cox regression, treatment regimen vs entecavir, after stop of treatment, listed as tenofovir): 1.74
Clinical relapse, univariate analysis HR (95% CI) ([2]; Table 4, Cox regression, treatment regimen vs entecavir, after stop of treatment, N = 186): 1.77 (1.19-2.62)
Time to clinical relapse, lasso regression, mean estimated hazard ratio ([2]; Table 10, clinical and genetic covariates, mean across 1000 iterations, vs entecavir): 1.492
Clinical relapse, multivariate analysis HR (95% CI) ([2]; Table 23b, Example 3, multivariate with age, EOT HBsAg, vs entecavir): 1.87 (1.26-2.78)
Clinical relapse, multivariate analysis HR (95% CI) ([2]; Table 23b, Example 3, multivariate with age, EOT HBsAg, vs entecavir, listed as tenofovir): 1.80
Clinical relapse, univariate analysis HR (95% CI) ([2]; Table 23b, Example 3, vs entecavir): 1.77 (1.19-2.62)
Clinical relapse HR, Cox model including the Clinical SNP signature ([2]; Table 26b, HBsAg and treatment regimen as main effects plus six SNPs, vs entecavir): 1.89
HR ([2]; hazard ratio for clinical relapse after stop of treatment, treatment regimen tenofovir vs entecavir, multivariate Cox model with HBsAg at end of treatment and all nine SNPs): 1.75
